Measurements published in ChEMBL document CHEMBL5614393, “Thioamides in medicinal chemistry and as small molecule therapeutic agents” (Eur J Med Chem, 2024).
pEC50, pIC50: −log10 of the molar value. Values after ≈ are worked out from the molar mass of the structure shown.

Assays:
SiHa = assay: Antiproliferative activity against human SiHa cells overexpressing PHGDH assessed as reduction in cell growth; format: functional, cell-based
HL-60 = assay: Antiproliferative activity against human HL-60 cells overexpressing PHGDH assessed as reduction in cell growth; format: functional, cell-based
MDA-MB-231 [1] = assay: Antiproliferative activity against human MDA-MB-231 cells overexpressing PHGDH assessed as reduction in cell growth; format: functional, cell-based
MCF7 [2] = assay: Cytotoxicity against human MCF7 cells assessed as reduction in cell viability incubated for 48 hrs by MTT assay; format: functional, cell-based; details: MCF7, 48 h
Pseudomonas aeruginosa = assay: Antibacterial activity against Pseudomonas aeruginosa ATCC 9027 assessed as reduction in bacterial cell growth incubated for 16 hrs by CLSI-based Mueller-Hinton broth dilution method; format: functional
Staphylococcus aureus = assay: Antibacterial activity against Staphylococcus aureus ATCC 6538 assessed as reduction in bacterial cell growth incubated for 16 hrs by CLSI-based Mueller-Hinton broth dilution method; format: functional
[3] = test system: Staphylococcus epidermidis; assay: Antibacterial activity against Staphylococcus epidermidis ATCC 12228 assessed as reduction in bacterial cell growth incubated for 16 hrs by CLSI-based Mueller-Hinton broth dilution method; format: functional
[4] = Inhibition of urease (unknown origin)
A549 = assay: Cytotoxicity against human A549 cells assessed as reduction in cell viability incubated for 24 hrs by MTT assay; format: functional, cell-based; details: A549, 24 h
HeLa = assay: Cytotoxicity against human HeLa cells assessed as reduction in cell viability incubated for 24 hrs by MTT assay; format: functional, cell-based
HCT-116 [5] = assay: Cytotoxicity against human HCT-116 cells assessed as reduction in cell growth incubated for 24 hrs by MTT assay; format: functional, cell-based; details: HCT-116, 24 h
MCF7 [6] = assay: Cytotoxicity against human MCF7 cells assessed as reduction in cell growth incubated for 24 hrs by MTT assay; format: functional, cell-based; details: MCF7, 24 h
[7] = AUClast in mouse at 40 mg/kg, ip; format: ADME, organism-based; details: in vivo
[8] = biological target: T1, NAD-dependent protein deacetylase sirtuin-2 (Homo sapiens, UniProt Q8IXJ6); assay: Inhibition of C-terminal His-tagged SIRT2 (50 to 356 residues) (unknown origin) using Ac-Glu-Thr-Asp-Lys(Myr)-AMC as substrate by fluorescence based analysis
T1 sequence (Q8IXJ6 whole entry): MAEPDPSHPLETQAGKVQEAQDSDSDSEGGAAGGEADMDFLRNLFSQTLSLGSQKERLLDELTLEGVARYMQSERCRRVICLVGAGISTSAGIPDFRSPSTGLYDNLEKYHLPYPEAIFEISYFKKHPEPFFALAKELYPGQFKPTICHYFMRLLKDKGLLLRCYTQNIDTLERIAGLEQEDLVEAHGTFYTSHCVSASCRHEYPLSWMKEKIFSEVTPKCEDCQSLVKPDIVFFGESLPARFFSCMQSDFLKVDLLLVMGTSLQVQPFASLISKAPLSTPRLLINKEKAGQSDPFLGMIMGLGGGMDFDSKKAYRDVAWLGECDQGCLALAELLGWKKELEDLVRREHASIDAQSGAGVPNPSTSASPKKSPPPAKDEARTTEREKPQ

[9] = Half life in mouse; format: ADME, organism-based; details: in vivo
[10] = Antioxidant activity assessed as DPPH radical scavenging activity; format: functional
Carbonic anhydrase 1 = Carbonic anhydrase 1 (Homo sapiens, UniProt P00915); assay: Inhibition of human carbonic anhydrase I
Chain of Carbonic anhydrase 1 (P00915 whole entry): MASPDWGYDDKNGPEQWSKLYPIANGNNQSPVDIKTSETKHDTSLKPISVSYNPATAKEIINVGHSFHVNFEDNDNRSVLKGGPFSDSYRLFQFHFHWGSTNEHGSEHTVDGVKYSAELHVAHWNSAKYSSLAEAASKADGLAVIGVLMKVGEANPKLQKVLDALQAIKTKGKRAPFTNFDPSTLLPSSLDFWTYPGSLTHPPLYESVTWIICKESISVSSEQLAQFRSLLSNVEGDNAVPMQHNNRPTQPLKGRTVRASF

Carbonic anhydrase 2 = Carbonic anhydrase 2 (Homo sapiens, UniProt P00918); assay: Inhibition of human carbonic anhydrase II
MCF7 [11] = assay: Cytotoxicity against human MCF7 cells assessed as reduction in cell growth by MTT colorimetric assay; format: functional, cell-based
HepG2 [12] = assay: Cytotoxicity against human HepG2 cells assessed as reduction in cell growth by MTT colorimetric assay; format: functional, cell-based
PC-3 = assay: Cytotoxicity against human PC-3 cells assessed as reduction in cell growth by MTT colorimetric assay; format: functional, cell-based
SARS-CoV-2 = assay: Antiviral activity against SARS-CoV-2 infected in African green monkey Vero E6 cells incubated for 48 hrs by plaque reduction assay; format: functional, organism-based; details: Severe acute respiratory syndrome coronavirus 2, Vero C1008, 48 h
HepG2 [13] = assay: Antiproliferative activity against human HepG2 cells; format: functional, cell-based
MCF7 [14] = assay: Antiproliferative activity against human MCF7 cells; format: functional, cell-based
MDA-MB-231 [15] = assay: Antiproliferative activity against human MDA-MB-231 cells; format: functional, cell-based
HCT-116 [16] = assay: Antiproliferative activity against human HCT-116 cells; format: functional, cell-based
Homo sapiens = organism: Homo sapiens; assay: Inhibition of NOS (unknown origin) at 15.6 uM relative to control
HCT-116 [17] = assay: Growth inhibition of human HCT-116 cells by SRB assay; format: functional
[18] = biological target: Epidermal growth factor receptor (Homo sapiens, UniProt P00533); assay: Inhibition of EGFR (unknown origin)
Chain of Epidermal growth factor receptor (P00533 whole entry): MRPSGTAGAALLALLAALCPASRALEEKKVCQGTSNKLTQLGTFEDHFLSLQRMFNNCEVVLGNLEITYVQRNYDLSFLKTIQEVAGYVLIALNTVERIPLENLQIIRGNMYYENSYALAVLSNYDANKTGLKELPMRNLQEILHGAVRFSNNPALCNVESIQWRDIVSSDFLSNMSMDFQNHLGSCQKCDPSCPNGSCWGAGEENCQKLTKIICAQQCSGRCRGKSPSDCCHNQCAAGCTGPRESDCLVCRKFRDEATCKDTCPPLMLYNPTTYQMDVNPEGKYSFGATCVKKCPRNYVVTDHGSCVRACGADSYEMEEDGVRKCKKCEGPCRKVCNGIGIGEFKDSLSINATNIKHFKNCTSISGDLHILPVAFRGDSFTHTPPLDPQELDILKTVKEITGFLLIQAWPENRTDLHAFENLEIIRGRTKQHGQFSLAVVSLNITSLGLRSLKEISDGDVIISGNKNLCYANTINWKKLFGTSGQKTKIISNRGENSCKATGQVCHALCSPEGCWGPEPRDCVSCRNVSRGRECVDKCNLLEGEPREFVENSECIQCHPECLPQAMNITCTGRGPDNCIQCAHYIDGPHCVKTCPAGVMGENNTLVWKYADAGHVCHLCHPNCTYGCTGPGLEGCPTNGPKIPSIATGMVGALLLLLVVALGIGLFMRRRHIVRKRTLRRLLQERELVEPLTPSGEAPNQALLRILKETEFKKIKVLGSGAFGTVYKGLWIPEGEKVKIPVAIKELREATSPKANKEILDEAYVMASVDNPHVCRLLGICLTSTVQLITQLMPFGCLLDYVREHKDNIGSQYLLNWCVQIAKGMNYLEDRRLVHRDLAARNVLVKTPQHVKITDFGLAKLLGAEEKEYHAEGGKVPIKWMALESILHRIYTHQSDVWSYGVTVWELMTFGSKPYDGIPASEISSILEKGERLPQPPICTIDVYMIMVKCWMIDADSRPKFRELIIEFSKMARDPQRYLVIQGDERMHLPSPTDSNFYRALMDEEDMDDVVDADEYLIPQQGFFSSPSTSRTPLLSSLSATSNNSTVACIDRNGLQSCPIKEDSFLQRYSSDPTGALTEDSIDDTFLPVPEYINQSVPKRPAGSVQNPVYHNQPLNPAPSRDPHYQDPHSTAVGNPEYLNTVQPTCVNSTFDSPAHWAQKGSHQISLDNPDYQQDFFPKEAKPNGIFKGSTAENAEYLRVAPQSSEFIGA

[19] = biological target: NAD-dependent protein deacetylase sirtuin-1 (Homo sapiens, UniProt Q96EB6); assay: Inhibition of SIRT1 (unknown origin)
Chain of NAD-dependent protein deacetylase sirtuin-1 (Q96EB6 whole entry): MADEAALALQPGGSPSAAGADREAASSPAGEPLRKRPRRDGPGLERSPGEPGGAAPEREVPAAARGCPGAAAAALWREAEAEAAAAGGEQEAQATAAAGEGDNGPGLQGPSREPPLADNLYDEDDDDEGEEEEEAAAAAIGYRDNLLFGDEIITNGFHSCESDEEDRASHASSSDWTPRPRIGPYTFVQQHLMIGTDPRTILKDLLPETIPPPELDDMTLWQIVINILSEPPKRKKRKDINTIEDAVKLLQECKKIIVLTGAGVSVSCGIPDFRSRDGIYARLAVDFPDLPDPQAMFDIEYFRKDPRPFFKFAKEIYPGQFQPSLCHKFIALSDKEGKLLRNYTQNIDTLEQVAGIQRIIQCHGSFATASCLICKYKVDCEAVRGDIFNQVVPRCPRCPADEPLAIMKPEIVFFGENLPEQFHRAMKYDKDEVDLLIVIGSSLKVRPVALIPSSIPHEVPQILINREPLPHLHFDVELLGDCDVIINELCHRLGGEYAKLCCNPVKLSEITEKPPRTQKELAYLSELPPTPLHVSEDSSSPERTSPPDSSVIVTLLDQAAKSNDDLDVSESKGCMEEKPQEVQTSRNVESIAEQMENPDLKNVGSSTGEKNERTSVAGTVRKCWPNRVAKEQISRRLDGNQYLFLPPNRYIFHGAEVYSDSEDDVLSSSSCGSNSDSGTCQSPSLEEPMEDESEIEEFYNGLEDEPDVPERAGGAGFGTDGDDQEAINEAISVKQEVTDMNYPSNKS

[20] = biological target: T1, NAD-dependent protein deacetylase sirtuin-2; assay: Inhibition of SIRT2 (unknown origin)
[21] = biological target: NAD-dependent protein deacetylase sirtuin-3, mitochondrial (Homo sapiens, UniProt Q9NTG7); assay: Inhibition of SIRT3 (unknown origin)
Chain of NAD-dependent protein deacetylase sirtuin-3, mitochondrial (Q9NTG7 whole entry): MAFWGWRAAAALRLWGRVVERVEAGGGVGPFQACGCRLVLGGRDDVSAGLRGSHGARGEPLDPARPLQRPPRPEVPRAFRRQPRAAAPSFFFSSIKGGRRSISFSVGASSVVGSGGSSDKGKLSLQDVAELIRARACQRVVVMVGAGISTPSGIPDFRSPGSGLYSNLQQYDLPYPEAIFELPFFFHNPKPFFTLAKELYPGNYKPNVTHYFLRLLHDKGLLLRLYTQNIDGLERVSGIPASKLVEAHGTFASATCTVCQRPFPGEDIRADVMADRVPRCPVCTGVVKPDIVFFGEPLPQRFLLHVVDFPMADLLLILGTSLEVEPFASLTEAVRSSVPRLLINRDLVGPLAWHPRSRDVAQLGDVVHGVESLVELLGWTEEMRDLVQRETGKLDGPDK

[22] = biological target: NAD-dependent protein deacylase sirtuin-5, mitochondrial (Homo sapiens, UniProt Q9NXA8); assay: Inhibition of SIRT5 (unknown origin)
Chain of NAD-dependent protein deacylase sirtuin-5, mitochondrial (Q9NXA8 whole entry): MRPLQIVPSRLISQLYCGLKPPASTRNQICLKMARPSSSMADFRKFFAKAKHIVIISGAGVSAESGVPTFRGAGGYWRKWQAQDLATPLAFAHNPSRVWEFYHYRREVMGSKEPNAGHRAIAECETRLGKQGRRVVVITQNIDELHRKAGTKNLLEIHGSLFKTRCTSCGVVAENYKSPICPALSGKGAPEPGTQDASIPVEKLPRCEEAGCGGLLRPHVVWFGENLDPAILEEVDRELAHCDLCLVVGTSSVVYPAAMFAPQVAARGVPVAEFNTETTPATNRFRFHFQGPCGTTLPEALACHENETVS

O=C(C(=S)N1CCOCC1)c1ccc(Cl)cc1
pIC50 (SiHa): 5.18
pIC50 (HL-60): 4.81
pIC50 (MDA-MB-231 [1]): < 4.00

COc1ccc(C2=NN(C(N)=O)C(/C=C/c3ccccc3)C2)cc1 (configuration not stated)
pIC50 (MCF7 [2]): 4.42

O=C(O)c1cn(C2CC2)c2cc(N3CCN(C(=S)c4cccc(F)c4)CC3)c(F)cc2c1=O
MIC50 (Pseudomonas aeruginosa): < 3 ng/mL
MIC50 (Staphylococcus aureus): < 3 ng/mL
MIC50 [3]: < 3 ng/mL
pIC50 [4]: 5.39

CN(C)c1ccc(C2CC(c3ccc(Cl)cc3)=NN2C(N)=S)cc1 (configuration not stated)
pIC50 (A549): 4.87
pIC50 (HeLa): 4.76

Cc1cccc(C)c1NC(=S)N1CCc2ccccc2C1
pIC50 [4]: 4.95

Cc1cc(C)c2c(n1)nn1c(C)c(C(=S)Nc3ccccc3)nnc21
pIC50 (HCT-116 [5]): 4.90
pIC50 (MCF7 [6]): 4.93

Cc1cc(C)nc(NC(=S)N2CCN(Cc3ccc(C(F)(F)F)cc3)CC2)c1
pIC50 (MDA-MB-231 [1]): 5.10
AUClast [7]: 147 µg·h/mL

CCCCCCCCCCCCNC(=S)NCCCC[C@H](NS(C)(=O)=O)C(=O)N[C@H](C)C(=O)NCCCCNC(=N)N
pIC50 [8]: 7.00
half-life [9]: < 2 h

CN(C)c1ccc(C2CC(c3cccs3)=NN2C(N)=S)cc1 (configuration not stated)
IC50 [10]: 632 ng/mL (≈ 1910 nM)

NC(=O)N1N=C(c2ccccc2)CC1/C=C/c1ccccc1 (configuration not stated)
pIC50 (MCF7 [2]): 4.72

NC(=S)N1N=C(c2ccc(Cl)cc2)CC1/C=C/c1ccccc1 (configuration not stated)
pIC50 (MCF7 [2]): 5.14

COc1ccc(-c2cc(-c3ccc(N)cc3)nn2C(N)=S)cc1OC
pIC50 (Carbonic anhydrase 1): 8.29
pIC50 (Carbonic anhydrase 2): 7.69

COc1ccc2ccc3c(c2c1)C(c1c(F)cccc1F)C(C(N)=S)=C(N)O3 (configuration not stated)
pIC50 (MCF7 [11]): 5.27
pIC50 (HepG2 [12]): 5.35
pIC50 (PC-3): 5.96

CC(C)(C)[C@H](NC(=O)C(F)(F)F)C(=O)N1C[C@H]2[C@@H]([C@H]1C(=O)N[C@H](C#N)C[C@H]1CCNC1=O)C2(C)C
pEC50 (SARS-CoV-2): 6.03

COc1ccc(C2=NN(C(N)=S)C(c3ccc(Cl)cc3)C2)cc1 (configuration not stated)
pIC50 (HepG2 [13]): 5.22
pIC50 (MCF7 [14]): 5.03
pIC50 (MDA-MB-231 [15]): 5.07
pIC50 (HCT-116 [16]): 5.23

COc1ccc(F)c2[nH]c(C(=O)N[C@@H](CC(C)C)C(=O)N[C@@H](C[C@@H]3CCNC3=O)C(=O)c3nc4c(F)cccc4s3)cc12
pEC50 (SARS-CoV-2): 6.54

NC(=O)N1N=C(c2ccc(Cl)cc2)CC1/C=C/c1ccccc1 (configuration not stated)
pIC50 (MCF7 [2]): 4.82

O=[N+]([O-])c1ccc(N2CCN(C(=S)NCc3nc4ccccc4s3)CC2)cc1
inhibition (Homo sapiens): 67%

O=C(O)c1cn(C2CC2)c2cc(N3CCN(C(=S)c4cccc([N+](=O)[O-])c4)CC3)c(F)cc2c1=O
pIC50 [4]: 5.23

COc1ccc(C2=NN(C(N)=S)C(/C=C/c3ccccc3)C2)cc1 (configuration not stated)
pIC50 (MCF7 [2]): 4.65

COc1cc(C2CC(c3ccccc3)=NN2C(N)=S)cc(OC)c1OC (configuration not stated)
GI50 (HCT-116 [17]): 0.15 µM

CCCCCCCCCCCCCC(=S)NCCCC[C@H](NS(C)(=O)=O)C(=O)N[C@H](C)C(=O)NCCCCNC(=N)N
pIC50 [8]: 7.05
half-life [9]: > 2 h

FC(F)(F)c1ccc(NC(=S)N2CCc3ccccc3C2)cc1
pIC50 [4]: 4.95

O=C(O)c1cn(C2CC2)c2cc(N3CCN(C(=S)c4ccc([N+](=O)[O-])cc4)CC3)c(F)cc2c1=O
pIC50 [4]: 5.69

COc1cccc2[nH]c(C(=O)N[C@@H](CC(C)C)C(=O)N[C@@H](C[C@@H]3CCNC3=O)C(=O)c3nc4ccccc4s3)cc12
pEC50 (SARS-CoV-2): 6.54

COc1ccc(NC(=S)N2CCc3ccccc3C2)cc1
pIC50 [4]: 4.95

NC(=S)N1N=C(c2ccccc2)CC1/C=C/c1ccccc1 (configuration not stated)
pIC50 (MCF7 [2]): 5.34
pIC50 [18]: 6.47

COc1cc(-c2cc(-c3ccc(N)cc3)nn2C(N)=S)cc(OC)c1OC
pIC50 (Carbonic anhydrase 1): 7.91

CCCCCCCCCCCCCC(=O)NCCCCC(NC(=O)OCc1ccccc1)C(=O)Nc1ccccc1 (configuration not stated)
pIC50 [19]: < 3.70
pIC50 [20]: < 3.70
pIC50 [21]: < 3.70
pIC50 [22]: < 3.70

COc1ccc(F)c2[nH]c(C(=O)N[C@@H](CC(C)C)C(=S)N[C@@H](C[C@@H]3CCNC3=O)C(=O)c3nc4c(F)cccc4s3)cc12
pEC50 (SARS-CoV-2): 6.47

CCCCCCCCCCCCCC(=S)NCCCCC(NC(=O)OCc1ccccc1)C(=O)Nc1ccccc1 (configuration not stated)
pIC50 [21]: < 3.70
pIC50 [22]: < 3.70
